What follows are compounds tested against T1, HCV RdRp NS5B d21BK (BK strain, 1b subtype) (Hepatitis C virus genotype 1b, UniProt P26663) (assay: Hepatitis C polymerase (NS5B RdRp) inhibition, 33P-GTP incorporation filter assay). Conditions: NS5B d21BK 24 nM, 2 hours at room temperature; read-out: HCV pol IC50.
T1 construct: NS5B from the BK strain (1b subtype) is expressed in E. coli as a protein in which the 21 C-terminal amino acids are replaced; made in house; host or cells: E. coli
Type: biochemical
Source text: The ability of the compounds of the present invention to inhibit Hepatitis C Polymerase was established by the following experimental procedure:
NS5B from the BK strain (1b subtype) is expressed in E. coli as a protein in which the 21 C-terminal amino acids are replaced with a short linker and a hexahistidine tag ([…]). The purified protein is mixed with radioactive nucleotides and allowed to replicate a heteropolymeric RNA substrate, primed by an endogenous short hairpin, resulting in an approximately 760 nt product. The radioactive product is captured on a filter and quantitated after removal of the unincorporated nucleotides.
(1) Compounds 10 μl at 10 μg/ml in 15% dimethylsulfoxide (DMSO)
• When starting from 100 μg/ml compound stock in […]: • Dispense 5 μl 30% DMSO per well • Dispense 5 μl compound (100 μg/ml) per well. • When starting from 50 μg/ml compound stock in 15% DMSO: • Add 10 μl compound per well. (2) Enzyme Mix:
Add 20 μl enzyme mix into each well of the assay plate. Incubate compound and enzyme at room temperature for 15 minutes. (3) Template Mix—Prepare Ahead
Spin down a tube of RNA (5 μg/tube stored in 75% ethanol and 0.3 M sodium acetate) in a microcentrifuge for 20 minutes. at 4° C. One tube is enough for 1-1.5 plates. Remove as much ethanol from the tube as possible by inverting the tube. Be gentle, pellet RNA may not adhere to the tube. Vacuum dry the RNA. Resuspend the RNA by adding 1 ml of DEPC water, close the cap of the tube tightly. To dissolve RNA, incubate RNA solution on ice for ˜60 minutes and gently vortex. Spin briefly to ensure all RNA solution is down to the bottom of the tube before opening cap. Gently transfer RNA solution into a 5 ml or larger tube. Add another 3 ml of DEPC water (total 4 ml of volume).
Add the following volumes of reagents
Add 20 μl template mix per reaction (i.e. 20 ng of pOF per reaction or ˜3 nM) (4) Incubate reaction at room temperature (22-25° C.) for 2 hours. (5) Stop reaction by adding 50 μl of 170 mM EDTA. • Final concentration of EDTA is 85 mM. (6) Prewet filters of Millipore multiscreen assay plate by adding 200 μl of 0.5 M sodium phosphate buffer, pH 7.0 into each well. Let stand at room temperature for 2-3 minutes. (7) Place the multiscreen filter plate onto a Millipore Manifold and turn on vacuum to allow buffer to flow through. Turn off vacuum. Transfer 80 μl of the reaction product into each well of the filter plate. Let stand for 2-3 minutes. Turn on vacuum to filter reaction product. (8) Turn off vacuum. Add. 200 μl of 0.5 M sodium phosphate buffer, pH 7.0 into each well to wash filter. […]
Percent inhibition is calculated after background subtraction as a percent reduction of activity relative to the positive control (average value of the plate excluding the negative controls). […]

T1 sequence (P26663 2420-2989): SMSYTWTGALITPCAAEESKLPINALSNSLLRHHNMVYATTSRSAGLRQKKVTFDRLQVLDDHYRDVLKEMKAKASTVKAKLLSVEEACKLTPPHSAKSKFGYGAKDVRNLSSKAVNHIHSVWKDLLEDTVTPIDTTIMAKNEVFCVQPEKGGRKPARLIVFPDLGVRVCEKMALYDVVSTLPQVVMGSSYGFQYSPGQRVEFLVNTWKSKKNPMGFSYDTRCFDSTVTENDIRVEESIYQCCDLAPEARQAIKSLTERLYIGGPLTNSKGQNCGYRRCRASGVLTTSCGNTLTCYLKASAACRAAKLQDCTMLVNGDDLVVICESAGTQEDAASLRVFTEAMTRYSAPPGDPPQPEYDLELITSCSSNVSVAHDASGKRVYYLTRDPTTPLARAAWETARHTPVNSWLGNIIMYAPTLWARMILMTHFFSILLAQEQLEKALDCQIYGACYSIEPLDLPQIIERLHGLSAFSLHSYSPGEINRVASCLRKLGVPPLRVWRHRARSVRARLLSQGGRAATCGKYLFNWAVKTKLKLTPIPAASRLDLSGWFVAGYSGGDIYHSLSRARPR

Point of comparison: `CCC[C@]1(CC(=O)O)OCCc2c1[nH]c1c(F)ccc(C#N)c21` [Example 2, [(R)-5-cyano-8-fluoro-1-propyl-1,3,4,9-tetrahydropyrano[3,4-b]indol-1-yl]acetic acid], IC50 440 nM. Against it:
- CCC[C@]1(CC(=O)O)OCCc2c1[nH]c1c(C)ccc(C#N)c21 [Example 1, [(R)-5-cyano-8-methyl-1-propyl-1,3,4,9-tetrahydropyrano[3,4-b]indol-1-yl]acetic acid] — within 1.5-fold, 330 nM
- CCC[C@]1(CC(=O)O)OCCc2c1[nH]c1c(Cl)ccc(Cl)c21 [Example 3, [(R)-5,8-dichloro-1-propyl-1,3,4,9-tetrahydropyrano[3,4-b]indol-1-yl]acetic acid] — 7.3-fold lower, 60 nM
- CCC[C@]1(CC(=O)O)OCCc2c1[nH]c1c(C)cc(F)c(C#N)c21 [Example 4, [(R)-5-cyano-6-fluoro-8-methyl-1-propyl-1,3,4,9-tetrahydropyrano [3,4-b]indol-1-yl]acetic acid] — 5.5-fold lower, 80 nM

— US6964979B2, “R-enantiomers of pyranoindole derivatives and the use thereof for the treatment of hepatitis C virus infection or disease” (Wyeth, priority 2002, dated 2005)
